Results reported in patent US20230250077A1, “SULFONYLBENZAMIDE DERIVATIVE AND CONJUGATE THEREOF, PREPARATION METHOD THEREFOR AND USE THEREOF” (Jiangsu Hengrui Pharmaceuticals Co., Ltd., priority 2020, published 2023).
Marks after values point to notes of the source that are not given here.

Assays:
SD rats = experiment: Toxicity test on SD rats by repeated intravenous administrations for 7 days; type: in vivo, rat; conditions: 1 mg/kg intravenously qd
Description: This experiment was performed to evaluate the toxicity of compound 9 and AZD4320 to SD rats by repeated intravenous administrations for 7 days.
30 SD rats, weighing about 180-200 g and aged 6-7 weeks, half male and half female, purchased from Zhejiang Vital River Laboratory Animal Technology Co., Ltd., SPF grade. Animal certification number: 200917Aazz0619000298 and 20200917Aazz0619000104. Production license number: SCXK (Zhejiang) 2019-0001.
Housing conditions: SPF grade, animals were housed in plastic and transparent rat cages, 2-3 per cage. The room temperature was 20-26° C. and the relative humidity was 40%-70%. The illumination was controlled in a 12/12 light/dark cycle. The granulated feed for mice was freely taken in an unlimited amount.
The rats were randomly divided into the following 3 groups: a vehicle control group, a compound 9-1 mg/kg group and a compound AZD4320-1 mg/kg group, with 6 rats in each group, half male and half female.
Dosage of the test sample for the 7-day toxicity test in rats: 1 mg/kg (qd), for 7 consecutive days. Administration route: intravenously, dosing volume: 10 mL/kg, dosing frequency and dosing period: daily in the morning for 7 days.
Vehicle: 1.5% DMA+98.5% (10% HS-15), wherein DMA is N,N-dimethylacetamide (Shanghai Titan Scientific Co., Ltd., Cat #01013630); and HS-15 is polyethylene glycol stearate 15 (Solutol HS15) (Shanghai Xietai Chemical Co., Ltd., Cat #50253404).
Hitachi 7100 automatic biochemical analyzer
Siemens advia 2120i automatic blood cell analyzer
Sysmex ca1500 automatic coagulation analyzer
The detection results were input and statistically processed by Excel of the computer.
Clinical symptoms, food intake and general visual observation results of dissection were not statistically calculated, and indexes such as body weight, organ weight and clinical examination were counted by using T-test.
SD rats were intravenously administered with 1 mg/kg compound 9 or 1 mg/kg AZD4320 at 5 mL/kg for 7 repeated days.

[1] = Pharmacokinetic evaluation in mice (iv, LC/MS/MS plasma); type: in vivo; conditions: C57 mice, female, intravenous administration, dose 1 mg/kg (table)
Description: The drug concentration in the plasma of the test animals (mice) at different time points after intravenous (iv) administration of compound 10 and AZD4320 was determined by an LC/MS/MS method. The pharmacokinetic behavior of the compounds of the present disclosure in mice was studied and their pharmacokinetic profile was valuated.
18 C57 mice, female, randomly divided into 2 groups, purchased from Zhejiang Vital River Laboratory Animal Technology Co., Ltd, animal production license number: SCXK (Shanghai) 2017-0005.
A certain amount of compound 10 was weighed, dissolved by adding 5% by volume of DMSO and 5% Tween 80 (Shanghai Titan Scientific Co., Ltd.), and then prepared into a 0.1 mg/mL clear solution by adding 90% normal saline. Compound AZD4320 was formulated as with compound 10. […]
(§1) The mice were intravenously administered with compound 10, and 0.1 mL of blood was collected before the administration and 5 min, 0.25 h, 0.5 h, 1.0 h, 2.0 h, 4.0 h, 8.0 h, 11.0 h and 24.0 h after the administration, put into an EDTA-K2 anticoagulation tube, centrifuged at 10,000 rpm for 1 min (4° C.). Plasma was separated within 1 hour, and stored at −20° C. for testing. The process from blood collection to centrifugation was performed under an ice bath.
as §1, with “compound AZD4320,” for “compound 10,”
The content of the test compounds at different concentrations in plasma of mice after the administration was determined: 10 μL of plasma of mice at each time point after the administration was mixed with 200 μL of methanol (containing an internal standard solution camptothecin (100 ng/mL)); the mixture was vortexed for 1 min, and centrifuged for 10 min (18,000 r/min), and 3 μL of supernatant was taken for LC/MS/MS analysis.

BCL-2 = target: T1, BCL-2 (Homo sapiens, UniProt P10415); experiment: Binding activity for BCL-2 (HTRF, biotin-labeled BIM); conditions: His-tagged BCL-2, biotin-labeled BIM
T1 construct: purchased R&D systems 827-BC-050
Description: In vitro BCL-2-binding activity was tested by the following method.
(§2) Reagents used in this experiment: His-tagged BCL-2 protein (R&D systems, Cat #827-BC-050); biotin-labeled BIM protein (R&D, Cat #3526/1); binding buffer (cisbio, Cat #62DLBDDF); assay buffer (cisbio, Cat #62DB1FDG); MAb anti-6His-Eu cryptate (cisbio, Cat #61HI2KLA); and affinity streptomycin linked XL665 (cisbio, Cat #611SAXLA).
The in vitro binding assay described below can determine the binding activity of test compounds for BCL-2.
(§3) The test compounds were dissolved in dimethyl sulfoxide and diluted to gradient concentrations as required for the experiment, and the compounds at various concentrations formulated in dimethyl sulfoxide were subjected to a 100-fold dilution with a binding buffer. BCL-2 was diluted to the corresponding concentration with a binding buffer solution, and added to a white 384-well plate at 4 μL/well. Then the diluted test compound was added into the white 384-well plate at 2 μL/well. The plate was incubated at 25° C. for 1 h after the mixture was uniformly mixed. Biotin-labeled BIM protein was diluted to the corresponding concentration with a binding buffer, and added to a white 384-well plate at 4 μL/well. The plate was incubated at 25° C. for 2 h after the mixture was uniformly mixed. The MAb anti-6His-Eu cryptate and the affinity streptomycin linked XL665 were each diluted to the corresponding concentration with an assay buffer, and added to a white 384-well plate at 5 μL/well. The plate was incubated at 25° C. for 2-4 h after the mixture was uniformly mixed. The signal values were read with the HTRF program in a microplate reader (BMG Labtech, model: PHERAstar FS).

RS4;11 cells = experiment: Inhibition of proliferation of RS4;11 cells (CellTiter-Glo); type: cell-based; conditions: Homo sapiens, 72 h, 3 days, read-out: Inhibitory activity IC50 (nM) for the proliferation of RS4;11 cells
Description: (§4) In vitro inhibitory activity for the proliferation of RS4;11 cells and NCI-H146 cells was tested by the following method.
(§5) Reagents used in this experiment: RPMI-1640 medium (HyCLone, Cat #SH30243018); fetal bovine serum (Gibco, Cat #10099-141); pancreatin (Gibco, Cat #25200-072); Cell Titer-Glo (Promega, Cat #G7571).
(§6) Materials used: RS4;11 cells (Nanjing Kebai Biotechnology Co., Ltd, Cat #CBP60641); and NCI-H146 cells (ATCC, Cat #HTB-173).
(§7) The in vitro cell proliferation assay described below can determine the inhibitory activity of the test compounds for the proliferation of RS4;11 cells and NCI-H146 cells.
(§8) RS4;11 cells (or NCI-H146 cells) were cultured in an RPMI-1640 culture medium containing 10% FBS, and were passaged for 2-3 times a week in a passage ratio of 1:3 or 1:5. During passage, the cells were transferred to a centrifuge tube, and centrifuged at 1200 rpm for 3 min. The supernatant was discarded, and fresh culture medium was added to resuspend the cells. 90 μL of cell suspension was added to a 96-well cell culture plate, wherein RS4;11 cells and NCI-H146 cells were added at a density of 2.22×10^5 cells/mL. Only 100 μL of complete medium (RPMI-1640 medium containing 10% FBS) was added to the periphery of the 96-well plate. The plate was incubated in an incubator for 24 h (37° C., 5% CO2).
(§9) The test sample was diluted to a proper concentration gradient with dimethyl sulfoxide as required for the experiment. 5 μL of the solution of the test compound prepared in a gradient concentration was added to 95 μL of fresh culture medium and mixed uniformly, and then 10 μL of the culture medium containing the above compound was added to a cell culture plate. The cell culture plate was incubated in an incubator for 3 days (37° C., 5% CO2). 50 μL of CellTiter-Glo reagent was added into each well of the 96-well cell culture plate. The plate was let stand for 5-10 min away from the light at room temperature. The chemiluminescence signals were read by a microplate reader (BMG Labtech, model: PHERAstar FS) and the data were processed by GraphPad software.

BCL-xL = target: T2, BCL-xL (Homo sapiens, UniProt Q07817); experiment: Binding activity for BCL-xL (HTRF, biotin-labeled BIM); conditions: His-tagged BCL-xL
T2 construct: purchased R&D 894-BX-050
Description: In vitro BCL-xL-binding activity was tested by the following method.
as §2, with “BCL-xL” for “BCL-2”, “(R&D,” for “(R&D systems,”, “#894-BX-050);” for “#827-BC-050);”
The in vitro binding assay described below can determine the binding activity of test compounds for BCL-xL.
as §3, with “BCL-xL” for “BCL-2”, “buffer,” for “buffer solution,”, “to” for “into”

NCI-H146 cells = experiment: Inhibition of proliferation of NCI-H146 cells (CellTiter-Glo); type: cell-based; conditions: Homo sapiens, 72 h, 3 days, read-out: Inhibitory activity IC50 (nM) for the proliferation of NCI-H146 cells
Description: as §4, §5, §6, §7, §8, §9

T1 sequence (P10415 whole entry): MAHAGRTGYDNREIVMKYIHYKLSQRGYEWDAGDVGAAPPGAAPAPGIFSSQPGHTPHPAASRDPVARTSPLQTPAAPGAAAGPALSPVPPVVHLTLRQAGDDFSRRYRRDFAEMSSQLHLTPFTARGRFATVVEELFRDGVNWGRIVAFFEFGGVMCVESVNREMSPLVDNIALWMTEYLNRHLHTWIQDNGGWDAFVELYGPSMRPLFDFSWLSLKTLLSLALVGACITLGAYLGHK
T2 sequence (Q07817 whole entry): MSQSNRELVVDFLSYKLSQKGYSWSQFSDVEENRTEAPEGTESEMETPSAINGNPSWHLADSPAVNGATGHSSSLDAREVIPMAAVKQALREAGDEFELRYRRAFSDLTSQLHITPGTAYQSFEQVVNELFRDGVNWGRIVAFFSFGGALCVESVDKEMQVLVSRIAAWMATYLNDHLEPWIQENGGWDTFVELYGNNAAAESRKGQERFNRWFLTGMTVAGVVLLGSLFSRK

For `CN(CCO)CC[C@H](CSc1ccccc1)Nc1ccc(S(=O)(=O)NC(=O)c2ccc(N3CCC([C@@H](O)c4ccccc4-c4ccc(Cl)cc4)CC3)cc2)cc1S(=O)(=O)C(F)(F)F` [AZD4320, reference compound], the “PLT (10^9/L)” value (SD rats) was 807.50** 10^9/L, the “Effect on platelets (in words)” value (SD rats; vs vehicle control) was “more significantly reduced” and the “Clearance CLz/F” value [1] was 4.36 L/h/kg. The AUC(0-t) ([1]; mouse, plasma, read-out: Area under curve AUC0-t) was 0.206 µg·h/mL, the half-life ([1]; mouse, plasma, read-out: Half-life T½ (converted)) was 3.1 h and the MRT inf ([1]; mouse, plasma, read-out: Mean retention time MRT 0-∞) was 2.4 h. For the same compound, the concentration at 5 min ([1]; mouse, plasma, read-out: Plasma Concentration C5 min) was 0.436 µg/mL.
Work on `CO[C@@H](c1ccccc1-c1ccc(Cl)cc1)C1CCN(c2ccc(C(=O)NS(=O)(=O)c3ccc(N[C@@H](CSc4ccccc4)C[C@H]4CCCN4CCO)c(S(=O)(=O)C(F)(F)F)c3)cc2)CC1` [Example 2-4, 4-(4-((R)-(4′-chloro-[1,1′-biphenyl]-2-yl)(methoxy)methyl)piperidin-1-yl)-N-((4-(((R)-1-((R)-1-(2-hydroxyethyl)pyrrolidin-2-yl)-3-(phenylthio)propan-2-yl)amino)-3-((trifluoromethyl)sulfonyl)phenyl)sulfonyl)benzamide] yielded a Ki (BCL-2) of 0.00013 µM, an IC50 (RS4;11 cells) of 34 nM and a Ki (BCL-xL) of 0.00032 µM. It also gave an IC50 (NCI-H146 cells) of 94 nM.
